Data taken from the NIST ThermoML archive (doi:10.1021/je900660x).
Numbers after ± are expanded uncertainties.

Key:
[1] = for mass density / viscosity / thermal conductivity: 101.33 kPa, Liquid; for mass density: Vibrating tube method; for Glass transition temperature: DTA; for thermal conductivity: Hot wire method
[2] = molar heat capacity at constant pressure; settings: 101.33 kPa, Liquid, Large sample (1 g) DSC

| Compound | mass density ([1]; 293.15 K) | viscosity ([1]; 298.15 K) | mass density ([1]; 298.15 K) | viscosity ([1]; 303.15 K) | mass density ([1]; 303.15 K) | viscosity ([1]; 313.15 K) | mass density ([1]; 313.15 K) | viscosity ([1]; 323.15 K) | mass density ([1]; 323.15 K) | viscosity ([1]; 333.15 K) | mass density ([1]; 333.15 K) | viscosity ([1]; 343.15 K) | mass density ([1]; 343.15 K) | viscosity ([1]; 353.15 K) | mass density ([1]; 353.15 K) | viscosity ([1]; 363.15 K) | mass density ([1]; 363.15 K) | Glass transition temperature [1] | molar heat capacity at constant pressure ([2]; 293.15 K) | molar heat capacity at constant pressure ([2]; 298.15 K) | also measured |
| --- | --- | --- | --- | --- | --- | --- | --- | --- | --- | --- | --- | --- | --- | --- | --- | --- | --- | --- | --- | --- | --- |
| CCCC[P+](CCCC)(CCCC)CCCC.NCCS(=O)(=O)[O-] [tetrabutylphosphonium 2-aminoethanesulfonate] | 1030.1 ± 5.7 kg/m3 | 1019 ± 210 mPa·s | 1026.8 ± 5.7 kg/m3 | 712.6 ± 130 mPa·s | 1023.7 ± 5.7 kg/m3 | 345.5 ± 46 mPa·s | 1017.6 ± 5.6 kg/m3 | 186.2 ± 17 mPa·s | 1011.5 ± 5.5 kg/m3 | 106.7 ± 6.2 mPa·s | 1005.3 ± 5.5 kg/m3 | 67.5 ± 2.2 mPa·s | 999.2 ± 5.4 kg/m3 | 44.2 ± 1.3 mPa·s | 993.3 ± 5.3 kg/m3 | 29.6 ± 0.9 mPa·s | 987.3 ± 5.3 kg/m3 | -58.14 ± 4 °C | 987.7 ± 100 J/K/mol | 994.6 ± 100 J/K/mol | molar heat capacity at constant pressure ([2]; 303.15 K): 1001.6 ± 100 J/K/mol; molar heat capacity at constant pressure ([2]; 313.15 K): 1015 ± 100 J/K/mol; molar heat capacity at constant pressure ([2]; 323.15 K): 1028.4 ± 100 J/K/mol; molar heat capacity at constant pressure ([2]; 333.15 K): 1042.6 ± 110 J/K/mol; molar heat capacity at constant pressure ([2]; 343.15 K): 1057.6 ± 110 J/K/mol; molar heat capacity at constant pressure ([2]; 353.15 K): 1073.7 ± 110 J/K/mol; molar heat capacity at constant pressure ([2]; 363.15 K): 1088.6 ± 110 J/K/mol |
| CCCC[P+](CCCC)(CCCC)CCCC.N[C@@H](CS)C(=O)[O-] [tetrabutylphosphonium L-cysteinate] | 1037.2 ± 5.8 kg/m3 | 2946 ± 810 mPa·s | 1033.7 ± 5.8 kg/m3 | 1866 ± 460 mPa·s | 1030 ± 5.7 kg/m3 | 832.7 ± 160 mPa·s | 1023.8 ± 5.7 kg/m3 | 397.4 ± 57 mPa·s | 1017.8 ± 5.6 kg/m3 | 208.4 ± 21 mPa·s | 1011.7 ± 5.5 kg/m3 | 118.3 ± 7.6 mPa·s | 1005.4 ± 5.5 kg/m3 | 72.5 ± 2.6 mPa·s | 999.1 ± 5.4 kg/m3 | 46.6 ± 1.4 mPa·s | 993 ± 5.3 kg/m3 | -29.68 ± 4 °C | 913.7 ± 92 J/K/mol | 919.8 ± 93 J/K/mol | thermal conductivity ([1]; 298.15 K): 0.152 ± 0.01 W/m/K; thermal conductivity ([1]; 303.15 K): 0.151 ± 0.01 W/m/K; thermal conductivity ([1]; 313.15 K): 0.15 ± 0.01 W/m/K; thermal conductivity ([1]; 323.15 K): 0.149 ± 0.01 W/m/K; thermal conductivity ([1]; 333.15 K): 0.148 ± 0.01 W/m/K; thermal conductivity ([1]; 343.15 K): 0.147 ± 0.01 W/m/K; thermal conductivity ([1]; 353.15 K): 0.146 ± 0.01 W/m/K; molar heat capacity at constant pressure ([2]; 303.15 K): 926.6 ± 94 J/K/mol; molar heat capacity at constant pressure ([2]; 313.15 K): 942.5 ± 95 J/K/mol; molar heat capacity at constant pressure ([2]; 323.15 K): 959.6 ± 97 J/K/mol; molar heat capacity at constant pressure ([2]; 333.15 K): 977.1 ± 99 J/K/mol; molar heat capacity at constant pressure ([2]; 343.15 K): 993.4 ± 100 J/K/mol; molar heat capacity at constant pressure ([2]; 353.15 K): 1008.2 ± 100 J/K/mol; molar heat capacity at constant pressure ([2]; 363.15 K): 1021.5 ± 100 J/K/mol |
| CCCC[P+](CCCC)(CCCC)CCCC.NCCCC[C@H](N)C(=O)[O-] [tetrabutylphosphonium L-lysinate] | 970.5 ± 5.1 kg/m3 | 741 ± 140 mPa·s | 967.5 ± 5.1 kg/m3 | 519.8 ± 83 mPa·s | 964.4 ± 5 kg/m3 | 268.7 ± 31 mPa·s | 958.4 ± 5 kg/m3 | 149.7 ± 12 mPa·s | 952.3 ± 4.9 kg/m3 | 90.4 ± 4.3 mPa·s | 946.2 ± 4.9 kg/m3 | 59.8 ± 1.7 mPa·s | 940.3 ± 4.8 kg/m3 | 39.7 ± 1.2 mPa·s | 934.4 ± 4.7 kg/m3 | 27.5 ± 0.8 mPa·s | 928.6 ± 4.7 kg/m3 | -66.7 ± 4 °C | 987.3 ± 100 J/K/mol | 997.4 ± 100 J/K/mol | thermal conductivity ([1]; 298.15 K): 0.163 ± 0.01 W/m/K; thermal conductivity ([1]; 303.15 K): 0.163 ± 0.01 W/m/K; thermal conductivity ([1]; 313.15 K): 0.162 ± 0.01 W/m/K; thermal conductivity ([1]; 323.15 K): 0.161 ± 0.01 W/m/K; thermal conductivity ([1]; 333.15 K): 0.16 ± 0.01 W/m/K; thermal conductivity ([1]; 343.15 K): 0.159 ± 0.01 W/m/K; thermal conductivity ([1]; 353.15 K): 0.158 ± 0.01 W/m/K; molar heat capacity at constant pressure ([2]; 303.15 K): 1004.3 ± 100 J/K/mol; molar heat capacity at constant pressure ([2]; 313.15 K): 1021.3 ± 100 J/K/mol; molar heat capacity at constant pressure ([2]; 323.15 K): 1040.3 ± 110 J/K/mol; molar heat capacity at constant pressure ([2]; 333.15 K): 1060.1 ± 110 J/K/mol; molar heat capacity at constant pressure ([2]; 343.15 K): 1077.9 ± 110 J/K/mol; molar heat capacity at constant pressure ([2]; 353.15 K): 1096.5 ± 110 J/K/mol; molar heat capacity at constant pressure ([2]; 363.15 K): 1111.5 ± 110 J/K/mol |
| CCCC[P+](CCCC)(CCCC)CCCC.O=C([O-])[C@@H]1CCCN1 [tetrabutylphosphonium L-prolinate] | 995.7 ± 5.4 kg/m3 | 1695 ± 400 mPa·s | 992.5 ± 5.3 kg/m3 | 1101 ± 230 mPa·s | 989.1 ± 5.3 kg/m3 | 483.5 ± 75 mPa·s | 983 ± 5.2 kg/m3 | 241.3 ± 26 mPa·s | 976.9 ± 5.2 kg/m3 | 133.1 ± 9.5 mPa·s | 970.8 ± 5.1 kg/m3 | 78.2 ± 3.1 mPa·s | 964.6 ± 5 kg/m3 | 49.6 ± 1.5 mPa·s | 958.6 ± 5 kg/m3 | 32.2 ± 1 mPa·s | 952.6 ± 4.9 kg/m3 | -65.87 ± 4 °C | 838 ± 85 J/K/mol | 844.2 ± 85 J/K/mol | thermal conductivity ([1]; 298.15 K): 0.154 ± 0.01 W/m/K; thermal conductivity ([1]; 303.15 K): 0.153 ± 0.01 W/m/K; thermal conductivity ([1]; 313.15 K): 0.152 ± 0.01 W/m/K; thermal conductivity ([1]; 323.15 K): 0.151 ± 0.01 W/m/K; thermal conductivity ([1]; 333.15 K): 0.15 ± 0.01 W/m/K; thermal conductivity ([1]; 343.15 K): 0.149 ± 0.01 W/m/K; thermal conductivity ([1]; 353.15 K): 0.148 ± 0.01 W/m/K; molar heat capacity at constant pressure ([2]; 303.15 K): 850.4 ± 86 J/K/mol; molar heat capacity at constant pressure ([2]; 313.15 K): 864.1 ± 87 J/K/mol; molar heat capacity at constant pressure ([2]; 323.15 K): 879.7 ± 89 J/K/mol; molar heat capacity at constant pressure ([2]; 333.15 K): 894.8 ± 90 J/K/mol; molar heat capacity at constant pressure ([2]; 343.15 K): 910.1 ± 92 J/K/mol; molar heat capacity at constant pressure ([2]; 353.15 K): 925.8 ± 94 J/K/mol; molar heat capacity at constant pressure ([2]; 363.15 K): 939.4 ± 95 J/K/mol |
| CCCC[P+](CCCC)(CCCC)CCCC.N[C@@H](CO)C(=O)[O-] [tetrabutylphosphonium L-serinate] | 995.5 ± 5.3 kg/m3 | 1143 ± 240 mPa·s | 992.3 ± 5.3 kg/m3 | 778.4 ± 150 mPa·s | 989.2 ± 5.3 kg/m3 | 395.4 ± 56 mPa·s | 983 ± 5.2 kg/m3 | 209.4 ± 21 mPa·s | 976.9 ± 5.2 kg/m3 | 122.9 ± 8.2 mPa·s | 970.8 ± 5.1 kg/m3 | 77.6 ± 3.1 mPa·s | 964.8 ± 5 kg/m3 | 49.7 ± 1.5 mPa·s | 958.9 ± 5 kg/m3 | 34.1 ± 1 mPa·s | 953 ± 4.9 kg/m3 | -59.38 ± 4 °C | 742 ± 75 J/K/mol | 748.5 ± 76 J/K/mol | molar heat capacity at constant pressure ([2]; 303.15 K): 755.1 ± 76 J/K/mol; molar heat capacity at constant pressure ([2]; 313.15 K): 765.6 ± 77 J/K/mol; molar heat capacity at constant pressure ([2]; 323.15 K): 776.5 ± 78 J/K/mol; molar heat capacity at constant pressure ([2]; 333.15 K): 787.4 ± 80 J/K/mol; molar heat capacity at constant pressure ([2]; 343.15 K): 797.6 ± 81 J/K/mol; molar heat capacity at constant pressure ([2]; 353.15 K): 807.8 ± 82 J/K/mol; molar heat capacity at constant pressure ([2]; 363.15 K): 814.7 ± 82 J/K/mol |
